Data as given in PubChem BioAssay (NCI).
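Cultured in 96-well plates, cells were exposed to test compound for 48 hours across five concentrations. GI50 = concentration required for 50% inhibition of growth. Definition used: TGI = concentration required for complete inhibition of growth.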 Where a SMILES comes first, the peptide text is derived from it. Bridges are numbered along the chain shown (N, C = ends). Roman numbers before positions name the chains, in order. [ ]: non-standard residue; d: D form. The star is where a group is joined. Quinoxaline2carbonyl = O=C(c1cnc2ccccc2n1)*; NMeV = CN[CH](C(=O)O)C(C)C; NMeC = CN[CH](CS)C(=O)O

How the values were obtained:
Assay in all cases: growth of human tumour cells (NCI), 48 h
CAKI-1 renal = system: CAKI-1 renal
HOP-62 NSCLC = system: HOP-62 NSCLC
OVCAR-5 ovarian = system: OVCAR-5 ovarian
ACHN renal = system: ACHN renal
NCI-H460 lung = system: NCI-H460 lung
HOP-92 NSCLC = system: HOP-92 NSCLC
SR leukemia = system: SR leukemia
NCI-H522 lung = system: NCI-H522 lung

Row | SMILES | GI50 (CAKI-1 renal) [µM] | TGI (CAKI-1 renal) [µM] | GI50 (HOP-62 NSCLC) [µM] | TGI (HOP-62 NSCLC) [µM] | GI50 (OVCAR-5 ovarian) [µM] | TGI (OVCAR-5 ovarian) [µM] | GI50 (ACHN renal) [µM] | TGI (ACHN renal) [µM] | GI50 (NCI-H460 lung) [µM] | TGI (NCI-H460 lung) [µM] | GI50 (HOP-92 NSCLC) [µM] | TGI (HOP-92 NSCLC) [µM] | GI50 (SR leukemia) [µM] | TGI (SR leukemia) [µM] | GI50 (NCI-H522 lung) [µM] | TGI (NCI-H522 lung) [µM]
1 | C#CCOc1cccc(Nc2ncnc3c(NC(=O)CCl)cccc23)c1 | 15.8 | 30.7 | 25.8 | 86.3 | 21.3 | 57 | 18.1 | 37.8 | 23.7 | 56 | 17 | 33.8 | 6.06 | 31.7 | 13.6 | 29.3
2 | Cc1nc2ccccc2c(/C=C/c2ccc(Br)cc2)c1C(=O)/C=C/c1ccccc1 | 1.26 | 2.62 | 1.76 | 3.4 | 1.84 | 3.37 | 1.64 | 3.02 | – | – | – | – | 1.24 | 6.6 | 1.42 | 3.04
3 | CC(=O)c1c(C(F)(F)F)n([O-])c2ccc(C)cc2[n+]1=O | 3.46 | 24.6 | 3.64 | 21.9 | 7 | 40.3 | 3.44 | 20.4 | 1.39 | > 39.8 | 1.11 | 4.81 | – | – | 3 | > 24.2
4 | N/N=C1\CC(=O)NC(=O)N1 | – | > 100 | – | > 100 | – | > 100 | – | > 100 | – | > 100 | – | > 100 | – | > 100 | – | > 100
5 | C[CH2][Pb]([CH2]C)([CH2]C)[O]C(=O)c1ccc2ccccc2n1 | > 10 | > 10 | > 10 | > 10 | > 10 | > 10 | > 10 | > 10 | > 10 | > 10 | > 10 | > 10 | > 10 | > 10 | > 10 | > 10
6 | COc1ccc(/C=N/NC(=O)Cn2c(-c3ccc(S(C)(=O)=O)cc3)nc3cc(Cl)ccc32)cc1 | 4.14 | > 50 | 1.42 | > 50 | 3.54 | > 50 | 2.13 | > 50 | 1.51 | > 50 | 1.52 | > 50 | – | – | 0.291 | 1.7
7 | COc1cc2c(c(OC)c1OC)-c1ccc(SC)c(=O)cc1[C@@H](NC1OC(CO)C(O)C(O)C1O)CC2 (stereo partly drawn) | 0.0727 | > 100 | – | > 100 | 0.0519 | > 100 | 0.0744 | > 100 | 0.0332 | > 100 | 0.0373 | > 57.9 | 0.0127 | > 100 | – | –
8 | CCOc1nc(N)nc(C)c1N=Nc1ccc(Cl)cc1 | – | > 100 | – | > 100 | – | > 100 | – | > 100 | – | > 100 | – | 88 | – | 23.9 | – | > 100
9 | CCN(Cc1ccc(Cl)s1)c1ccc(CO)c(Cl)c1 | 2.27 | 34.6 | 0.746 | 18.4 | 0.0644 | 0.297 | 4.68 | > 100 | 0.202 | 10 | 0.563 | 15.1 | 17.6 | 57.1 | 15.2 | 37
10 | Nc1ccccc1SCc1csc(-c2ccc(Cl)cc2)n1 | – | > 100 | – | > 90.6 | – | > 95.2 | – | 73.2 | – | > 77.2 | – | 60.1 | – | 29.9 | – | 31.1
11 | CSC(=S)N/N=C(\C)c1cccc(C)n1 | – | 23.6 | – | 6.98 | – | 86.5 | – | 3.48 | – | 9.79 | – | 13.9 | – | > 65.6 | – | 3.01
12 | N#Cc1c(N)[nH]c2ccc(Sc3ccccc3)cc12 | – | 9.27 | – | 20.5 | – | 18 | – | 16 | – | 21.6 | – | 19.8 | – | 6.25 | – | 3.21
13 | COc1ccc(OC)c(C2SCC(=O)N2NC(=O)C(O)c2ccccc2)c1 (stereo not drawn) | > 100 | > 100 | > 100 | > 100 | > 100 | > 100 | > 100 | > 100 | > 100 | > 100 | > 100 | > 100 | – | – | > 100 | > 100
14 | CCN1C(=O)N(CC)C2C1NN=c1s/c(=C\c3ccccc3Br)c(=O)n12 (stereo not drawn) | 0.0242 | 26.3 | 0.0485 | 20.4 | 0.061 | > 48.7 | 0.0437 | > 61.6 | 0.0337 | 4.14 | 0.37 | 44.7 | 0.023 | > 100 | 0.019 | 1.12
15 | CC1NC(=O)C(NC(=O)c2cnc3ccccc3n2)COC(=O)C(C(C)C)N(C)C(=O)C2CSSCC(C(=O)N(C)C(C(C)C)C(=O)OCC(NC(=O)c3cnc4ccccc4n3)C(=O)NC(C)C(=O)N2C)N(C)C1=O (stereo not drawn) (I: Quinoxaline2carbonyl-SA[NMeC][NMeV] / II: Quinoxaline2carbonyl-SA[NMeC][NMeV]; ester I:1-II:C, I:C-II:1; disulfide I:3-II:3; configuration not given here) | – | > 48.7 | – | 2.27 | – | > 4.64 | – | 11.9 | – | 2.23 | – | > 35.7 | – | – | – | < 0.01
16 | COc1ccc(C2[C@@H](Cl)C(=O)N2c2cc(OC)c(OC)c(OC)c2)cc1Cl (stereo partly drawn) | 0.146 | > 100 | 0.18 | > 100 | 0.369 | > 100 | 0.0798 | 49.1 | 0.317 | 6.95 | 2.29 | 85.9 | 0.0551 | > 100 | 0.0353 | 0.296
17 | O=C(O)COc1c(Cl)cc(Cl)c2cccnc12 | – | > 100 | – | > 100 | – | > 100 | – | > 100 | – | > 100 | – | > 100 | – | > 100 | – | > 100
18 | CC(C)(C)c1ccc(C(=O)Nc2sc3c(c2C(N)=O)CCC(=O)C3)cc1 | 0.348 | 1.38 | 2.38 | 6.62 | 1.49 | 3.82 | 0.352 | 1.1 | 0.586 | 1.94 | 1.13 | 2.96 | 0.363 | 10.1 | 0.318 | 1.91
